Legend:
[1] = Inhibition of Phospholipase A2
[2] = target: T1, Carnitine O-palmitoyltransferase 1, liver isoform (Homo sapiens, UniProt P50416); assay: Inhibition of human CPT1A
T1 sequence (P50416 whole entry): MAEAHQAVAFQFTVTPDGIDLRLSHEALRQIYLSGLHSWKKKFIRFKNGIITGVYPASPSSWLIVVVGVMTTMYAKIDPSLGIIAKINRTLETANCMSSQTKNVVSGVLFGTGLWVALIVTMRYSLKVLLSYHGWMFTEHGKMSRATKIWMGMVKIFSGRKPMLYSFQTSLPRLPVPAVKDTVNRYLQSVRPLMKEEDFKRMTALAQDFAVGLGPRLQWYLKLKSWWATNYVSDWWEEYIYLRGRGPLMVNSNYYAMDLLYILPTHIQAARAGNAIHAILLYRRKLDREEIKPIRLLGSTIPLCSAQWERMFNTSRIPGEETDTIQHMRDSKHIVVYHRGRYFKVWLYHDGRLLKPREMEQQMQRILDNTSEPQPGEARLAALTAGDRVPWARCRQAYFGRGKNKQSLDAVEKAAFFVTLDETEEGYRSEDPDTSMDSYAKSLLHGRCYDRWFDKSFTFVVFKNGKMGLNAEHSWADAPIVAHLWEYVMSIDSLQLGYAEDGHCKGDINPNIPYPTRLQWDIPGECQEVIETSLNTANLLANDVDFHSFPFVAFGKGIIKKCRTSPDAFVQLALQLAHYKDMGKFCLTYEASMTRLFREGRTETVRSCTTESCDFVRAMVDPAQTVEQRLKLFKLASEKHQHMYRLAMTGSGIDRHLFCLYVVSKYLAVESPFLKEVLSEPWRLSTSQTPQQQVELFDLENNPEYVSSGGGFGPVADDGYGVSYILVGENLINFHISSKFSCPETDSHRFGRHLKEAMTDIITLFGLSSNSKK

[3] = Inhibition of human FAO
[4] = Inhibition of FAO
[5] = Inhibition of rat FAO
[6] = Inhibition of carnitine palmitoyltransferase in 18 hr fasted rat hepatocytes; type: cell-based; conditions: hepatocyte
[7] = Inhibition of carnitine palmitoyltransferase in 18 hr fasted rat liver homogenates; type: tissue-based
[8] = target: T2, Carnitine O-palmitoyltransferase 2, mitochondrial (Homo sapiens, UniProt P23786); assay: Inhibition of human CPT2
T2 sequence (P23786 whole entry): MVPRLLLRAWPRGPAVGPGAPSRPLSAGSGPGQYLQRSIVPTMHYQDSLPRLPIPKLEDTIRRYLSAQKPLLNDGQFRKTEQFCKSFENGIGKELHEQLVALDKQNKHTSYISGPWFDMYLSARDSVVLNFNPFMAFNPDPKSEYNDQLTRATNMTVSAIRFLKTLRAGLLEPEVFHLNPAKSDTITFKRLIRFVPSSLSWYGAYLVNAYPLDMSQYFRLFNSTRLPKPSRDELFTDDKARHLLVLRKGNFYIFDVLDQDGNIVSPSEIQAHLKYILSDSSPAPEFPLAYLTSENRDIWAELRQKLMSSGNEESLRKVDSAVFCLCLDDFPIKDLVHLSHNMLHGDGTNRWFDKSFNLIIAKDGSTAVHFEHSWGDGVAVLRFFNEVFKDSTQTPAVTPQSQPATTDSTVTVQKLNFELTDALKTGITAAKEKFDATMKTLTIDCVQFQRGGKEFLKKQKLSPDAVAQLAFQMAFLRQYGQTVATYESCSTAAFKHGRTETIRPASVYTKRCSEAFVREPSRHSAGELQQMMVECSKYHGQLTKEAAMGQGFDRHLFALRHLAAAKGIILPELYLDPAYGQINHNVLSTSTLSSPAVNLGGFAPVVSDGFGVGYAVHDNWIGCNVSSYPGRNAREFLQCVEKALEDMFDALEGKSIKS

[9] = target: T3, Carnitine O-palmitoyltransferase 1, muscle isoform (Homo sapiens, UniProt Q92523); assay: Inhibition of human CPT1B
T3 sequence (Q92523 whole entry): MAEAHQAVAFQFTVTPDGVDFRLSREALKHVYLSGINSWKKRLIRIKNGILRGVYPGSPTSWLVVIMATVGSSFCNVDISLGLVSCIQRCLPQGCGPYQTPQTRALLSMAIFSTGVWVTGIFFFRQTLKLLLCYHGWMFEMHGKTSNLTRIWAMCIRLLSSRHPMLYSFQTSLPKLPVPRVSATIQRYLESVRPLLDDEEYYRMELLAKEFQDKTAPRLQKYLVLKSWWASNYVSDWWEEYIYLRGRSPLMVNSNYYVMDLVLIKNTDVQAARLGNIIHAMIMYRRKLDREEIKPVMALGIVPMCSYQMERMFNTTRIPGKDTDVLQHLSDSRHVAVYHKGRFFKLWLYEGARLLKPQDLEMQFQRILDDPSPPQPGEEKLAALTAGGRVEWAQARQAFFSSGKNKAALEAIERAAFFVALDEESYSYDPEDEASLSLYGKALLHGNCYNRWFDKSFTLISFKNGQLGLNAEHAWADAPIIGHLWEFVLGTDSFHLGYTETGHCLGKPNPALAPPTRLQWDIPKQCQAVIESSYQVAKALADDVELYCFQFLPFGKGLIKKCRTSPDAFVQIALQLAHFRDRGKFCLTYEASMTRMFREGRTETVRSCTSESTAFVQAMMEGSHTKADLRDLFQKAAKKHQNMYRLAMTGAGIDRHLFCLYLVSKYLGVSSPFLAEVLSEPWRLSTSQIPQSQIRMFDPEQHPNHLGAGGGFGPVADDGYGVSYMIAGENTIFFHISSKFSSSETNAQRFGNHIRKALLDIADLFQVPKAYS

[10] = target: T4, Carnitine O-palmitoyltransferase 2, mitochondrial (Rattus norvegicus, UniProt P18886); assay: Inhibition of CPT2 in rat mitochondria using [3H]carnitine by radiometric method
T4 sequence (P18886 whole entry): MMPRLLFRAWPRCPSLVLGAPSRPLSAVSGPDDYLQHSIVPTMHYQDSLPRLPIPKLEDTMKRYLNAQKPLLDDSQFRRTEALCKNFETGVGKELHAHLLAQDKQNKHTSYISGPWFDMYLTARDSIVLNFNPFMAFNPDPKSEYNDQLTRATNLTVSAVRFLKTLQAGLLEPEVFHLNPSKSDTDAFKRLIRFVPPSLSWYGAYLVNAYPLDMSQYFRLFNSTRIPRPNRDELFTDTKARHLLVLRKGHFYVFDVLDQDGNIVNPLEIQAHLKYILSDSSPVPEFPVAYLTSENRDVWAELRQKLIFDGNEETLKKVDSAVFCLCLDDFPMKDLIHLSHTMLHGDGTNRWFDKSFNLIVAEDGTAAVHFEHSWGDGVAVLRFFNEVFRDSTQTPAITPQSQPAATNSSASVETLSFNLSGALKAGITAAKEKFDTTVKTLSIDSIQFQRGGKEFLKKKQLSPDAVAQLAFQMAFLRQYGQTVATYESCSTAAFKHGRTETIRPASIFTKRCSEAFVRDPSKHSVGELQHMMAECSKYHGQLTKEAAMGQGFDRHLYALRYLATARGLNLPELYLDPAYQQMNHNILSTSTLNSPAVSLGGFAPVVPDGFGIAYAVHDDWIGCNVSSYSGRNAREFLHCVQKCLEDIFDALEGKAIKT

[11] = target: Carnitine O-palmitoyltransferase 1, muscle isoform (Rattus norvegicus) (UniProt Q63704); assay: Inhibition of CPT1 in rat cardiac mitochondria using [3H]carnitine by radiometric method
Carnitine O-palmitoyltransferase 1, muscle isoform (Rattus norvegicus), sequence (Q63704 whole entry, looked up, canonical isoform): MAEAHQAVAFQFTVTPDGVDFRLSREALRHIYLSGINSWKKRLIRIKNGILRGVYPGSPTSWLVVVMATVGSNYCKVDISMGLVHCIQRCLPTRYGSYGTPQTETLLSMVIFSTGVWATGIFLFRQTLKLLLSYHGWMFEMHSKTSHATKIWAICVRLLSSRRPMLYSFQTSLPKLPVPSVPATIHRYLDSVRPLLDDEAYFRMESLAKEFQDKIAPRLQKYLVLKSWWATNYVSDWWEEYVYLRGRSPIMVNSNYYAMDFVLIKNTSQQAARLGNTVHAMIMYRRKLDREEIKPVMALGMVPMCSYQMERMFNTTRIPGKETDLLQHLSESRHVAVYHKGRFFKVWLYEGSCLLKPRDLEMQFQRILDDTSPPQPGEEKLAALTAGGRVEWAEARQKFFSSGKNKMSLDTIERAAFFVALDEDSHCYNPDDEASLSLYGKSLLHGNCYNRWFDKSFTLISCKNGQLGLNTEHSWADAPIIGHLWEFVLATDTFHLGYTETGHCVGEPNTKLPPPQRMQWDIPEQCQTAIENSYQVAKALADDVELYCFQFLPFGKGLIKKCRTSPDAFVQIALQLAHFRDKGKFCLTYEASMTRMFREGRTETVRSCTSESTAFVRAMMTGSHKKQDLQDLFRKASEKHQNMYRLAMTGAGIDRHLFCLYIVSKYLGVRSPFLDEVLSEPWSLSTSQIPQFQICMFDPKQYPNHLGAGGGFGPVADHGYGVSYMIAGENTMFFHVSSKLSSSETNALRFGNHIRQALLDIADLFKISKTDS

[12] = target: T5, Carnitine O-palmitoyltransferase 1, liver isoform (Rattus norvegicus, UniProt P32198); assay: Inhibition of CPT1 in rat liver mitochondria using [3H]carnitine by radiometric method
T5 sequence (P32198 whole entry): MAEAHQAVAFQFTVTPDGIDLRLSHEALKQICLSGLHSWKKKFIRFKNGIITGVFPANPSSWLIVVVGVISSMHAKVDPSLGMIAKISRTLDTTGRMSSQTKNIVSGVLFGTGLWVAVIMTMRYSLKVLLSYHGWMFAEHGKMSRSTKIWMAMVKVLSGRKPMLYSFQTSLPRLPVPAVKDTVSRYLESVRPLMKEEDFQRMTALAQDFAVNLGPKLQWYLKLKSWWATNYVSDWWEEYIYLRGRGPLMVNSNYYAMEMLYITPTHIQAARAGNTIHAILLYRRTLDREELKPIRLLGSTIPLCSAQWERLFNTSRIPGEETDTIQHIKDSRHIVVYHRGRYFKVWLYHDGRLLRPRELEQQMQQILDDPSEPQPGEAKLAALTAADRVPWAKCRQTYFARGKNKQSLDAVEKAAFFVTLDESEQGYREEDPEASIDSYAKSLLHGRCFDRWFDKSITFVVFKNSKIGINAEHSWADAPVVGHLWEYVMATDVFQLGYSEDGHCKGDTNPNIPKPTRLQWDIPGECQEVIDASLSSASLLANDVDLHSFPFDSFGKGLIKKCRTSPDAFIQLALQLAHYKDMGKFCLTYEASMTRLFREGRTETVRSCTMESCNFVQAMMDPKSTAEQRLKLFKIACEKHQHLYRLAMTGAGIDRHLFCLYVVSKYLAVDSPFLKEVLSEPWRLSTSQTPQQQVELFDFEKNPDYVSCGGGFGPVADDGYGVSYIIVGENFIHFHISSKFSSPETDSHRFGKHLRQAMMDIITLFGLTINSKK

[13] = target: T5, Carnitine O-palmitoyltransferase 1, liver isoform; assay: Inhibition of rat CPT1 in rat mitochondria
[14] = target: T4, Carnitine O-palmitoyltransferase 2, mitochondrial; assay: Inhibition of rat CPT2 in rat mitochondria
Rattus norvegicus [15] = assay: Reduction in whole body glucose utilization in Wistar rat at 60 mg/kg, iv over 5.5 hrs; type: functional; design: scale not given: the % may be the effect or the level left
Sus scrofa = assay: Reduction in plasma glucose in 48 hrs fasted pig at 20 mg, iv measured 5 hrs post dose; type: functional; design: scale not given: the % may be the effect or the level left
Rattus norvegicus [16] = assay: Reduction in glucose carbon recycling in Wistar rat at 60 mg/kg, iv over 5.5 hrs; type: functional; design: scale not given: the % may be the effect or the level left
Rattus norvegicus [17] = assay: Reduction in plasma glucose in Wistar rat at 60 mg/kg, iv over 5.5 hrs; type: functional; design: scale not given: the % may be the effect or the level left
Rattus norvegicus [18] = assay: Reduction in blood 3-OH-butyrate in Wistar rat at 60 mg/kg, iv over 5.5 hrs (reference value: 1 mM); type: functional
[19] = target: T4, Carnitine O-palmitoyltransferase 2, mitochondrial; assay: Inhibition of rat CPT2
[20] = target: T5, Carnitine O-palmitoyltransferase 1, liver isoform; assay: Inhibition of rat CPT1A
[21] = target: Carnitine O-palmitoyltransferase 1, muscle isoform (Rattus norvegicus, UniProt Q63704); assay: Inhibition of […] in rat myocardium; type: tissue-based
Carnitine O-palmitoyltransferase 1, muscle isoform (Rattus norvegicus, UniProt Q63704), sequence (Q63704 whole entry, canonical isoform): as the sequence (Q63704 whole entry, looked up, canonical isoform) above

[22] = Inhibition of carnitine palmitoyltransferase in 20 hrs fasted Sprague-Dawley rat liver mitochondria assessed as palmitate oxidation by radiometry
Rattus norvegicus [23] = assay: Increase in plasma FFA level in fasted Wistar rat at 16 mg/kg, ip; type: functional; conditions: route intraperitoneal
Rattus norvegicus [24] = assay: Reduction in palmitate oxidation in rat liver mitochondria at 18 mg/kg, ip administered as single dose measured 24 hrs post dose; type: functional; design: scale not given: the % may be the effect or the level left; conditions: route intraperitoneal
Rattus norvegicus [25] = assay: Increase in plasma TG level in fasted Wistar rat at 16 mg/kg, ip; type: functional; conditions: route intraperitoneal
Rattus norvegicus [26] = assay: Reduction in plasma glucose level in fasted Wistar rat at 16 mg/kg, ip; type: functional; design: scale not given: the % may be the effect or the level left; conditions: route intraperitoneal
[27] = Inhibition of carnitine palmitoyltransferase in rat mitochondria
Rattus norvegicus [28] = assay: Increase in plasma VLDL level in fasted Wistar rat at 16 mg/kg, ip; type: functional; conditions: route intraperitoneal
[29] = Inhibition of carnitine palmitoyltransferase in 24 hrs fasted rat liver mitochondria assessed as palmitoylcarnitine oxidation by radiometry
[30] = target: T4, Carnitine O-palmitoyltransferase 2, mitochondrial; assay: Inhibition of CPT2 in 24 hrs fasted rat liver mitochondria assessed as palmitoylcarnitine oxidation by radiometry
[31] = Inhibition of carnitine palmitoyltransferase in 20 hrs fasted Sprague-Dawley rat liver mitochondria assessed as palmitoylcarnitine oxidation by radiometry
Rattus norvegicus [32] = assay: Increase in plasma LDL level in fasted Wistar rat at 16 mg/kg, ip; type: functional; conditions: route intraperitoneal

## COC(=O)C1(C(F)CCCCc2ccccc2)CO1 (configuration not stated)
[1]
  IC50: 2.6 µM

## CCCCCCCCCCCCCCCC(=O)N[C@H](CC(=O)[O-])C[N+](C)(C)C [PALMITOYLAMINOCARNITINE]
[2]
  IC50: 2.67 µM
[3]
  IC50: 2.8 µM
[4]
  IC50: 0.05 µM
[5]
  IC50: 0.27 µM
[6]
  IC50: 1.2 µM
[7]
  IC50: 1.3 µM
[8]
  IC50: 0.14 µM
[9]
  IC50: 21.7 µM

## C1CCC(C(CC2CCCCN2)C2CCCCC2)CC1 (configuration not stated) [PERHEXILINE]
[2]
  IC50: > 100 µM
[3]
  IC50: 22.4 µM
[10]
  IC50: 79 µM
[11]
  IC50: 77 µM
[5]
  IC50: 21.4 µM
[12]
  IC50: 148 µM
[8]
  IC50: 72.8 µM
[9]
  IC50: > 100 µM

## COc1cccc2c1C(=O)c1c(O)c3c(c(O)c1C2=O)C[C@@](O)(C(=O)CO)C[C@@H]3O[C@H]1C[C@H](N)[C@H](O)[C@H](C)O1 [DOXORUBICIN]
[13]
  IC50: 250 µM
[14]
  IC50: > 100 µM

## O=C(O)C1(CCCCCCOc2ccc(Cl)cc2)CO1 (racemic)
Rattus norvegicus [15]
  Activity: 14%
Sus scrofa
  Activity: 50%
Rattus norvegicus [16]
  Activity: 30%
Rattus norvegicus [17]
  Activity: 25%
Rattus norvegicus [18]
  Activity: 0.03 mM

## CCCCc1ccc(NC(=O)OCCN2CCCCC2CC(C2CCCCC2)C2CCCCC2)cc1 (configuration not stated)
[19]
  IC50: > 10 µM
[20]
  IC50: > 10 µM

## COc1ccc(CN2CCNCC2)c(OC)c1OC [TRIMETAZIDINE]
[2]
  IC50: > 100 µM
[3]
  IC50: 20.5 µM
[5]
  IC50: > 100 µM
[8]
  IC50: > 100 µM
[9]
  IC50: > 100 µM
[21]
  IC50: 1.3 µM

## C[N+](C)(C)C[C@H](N)CC(=O)[O-]
[22]
  IC50: 3.2 µM
[2]
  IC50: 76.4 µM
Rattus norvegicus [23]
  Activity: 244%
Rattus norvegicus [24]
  Activity: 68%
Rattus norvegicus [25]
  Activity: 684%
Rattus norvegicus [26]
  Activity: 16%
[19]
  IC50: 5.1 µM
[27]
  IC50: 3.2 µM
Rattus norvegicus [28]
  Activity: 1034%
[29]
  IC50: 5.4 µM
[30]
  IC50: 0.8 µM
[8]
  IC50: 3.9 µM
[31]
  IC50: 12 µM
Rattus norvegicus [32]
  Activity: 88%
[9]
  IC50: > 100 µM
